Results on 24 molecules are retold here after PubChem BioAssay AID330 (DTP/NCI, 2004).

“And” between values parts separate entries of the source, which are not always exact repeats. Equal values may be shown once. Inconclusive results and toxic doses are left out.

For the experiment, the system named is P388 leukemia ip, CD2F1 mice, survival T/C. As to the kind of experiment: NCI In Vivo Anticancer Drug Screen. Data for tumor model P388 Leukemia (intraperitoneal) in CD2F1 (CDF1) mice. The conditions noted are these: endpoint: median survival time, higher = longer survival. The method in brief:
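Mice carrying the transplanted tumor received test compound or vehicle. Survival was recorded in each group, and the value is the treated-group measurement divided by that of the vehicle-treated control group.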

Setting [1] is: dose: 25.0 mg/kg/injection, schedule: Q01DX005 (ip), vehicle: Klucel (hydroxypropylcellulose) (HPC).
Setting [2] is: dose: 50.0 mg/kg/injection, schedule: Q01DX005 (ip), vehicle: Klucel (hydroxypropylcellulose) (HPC).
Where [3] appears, read: dose: 100.0 mg/kg/injection, schedule: Q01DX005 (ip), vehicle: Klucel (hydroxypropylcellulose) (HPC).
The mark [4] stands for this setting: dose: 200.0 mg/kg/injection, schedule: Q01DX005 (ip), vehicle: Klucel (hydroxypropylcellulose) (HPC).
Where [5] appears, read: dose: 3.12 mg/kg/injection, schedule: Q01DX005 (ip), vehicle: saline with Tween-80.
The mark [6] stands for this setting: dose: 6.25 mg/kg/injection, schedule: Q01DX005 (ip), vehicle: saline with Tween-80.
Setting [7] is: dose: 50.0 mg/kg/injection, schedule: Q01DX005 (ip), vehicle: saline with Tween-80.
Where [8] appears, read: dose: 50.0 mg/kg/injection, schedule: Q01DX009 (ip), vehicle: saline with Tween-80.
[9] abbreviates: dose: 100.0 mg/kg/injection, schedule: Q01DX009 (ip), vehicle: saline with Tween-80.
[10] abbreviates: dose: 200.0 mg/kg/injection, schedule: Q01DX009 (ip), vehicle: saline with Tween-80.
Where [11] appears, read: dose: 12.5 mg/kg/injection, schedule: Q01DX005 (ip), vehicle: Klucel (hydroxypropylcellulose) (HPC).

As to `CC1(C)N=C(N)N=C(N)N1c1cccc(C(=O)O)c1`, the T/C is, setting by setting: under setting [1], 117 % of control; under setting [2], 100 % of control; under setting [3], 107 % of control.

`NCc1cc(O)c(O)c(O)c1`: the T/C reads like this: (dose: 25.0 mg/kg/injection, schedule: Q01DX009 (ip), vehicle: saline) 100 % of control; (dose: 50.0 mg/kg/injection, schedule: Q01DX009 (ip), vehicle: saline) 103 % of control and 120 % of control; (dose: 100.0 mg/kg/injection, schedule: Q01DX009 (ip), vehicle: saline) 110 % of control and 118 % of control and 114 % of control; (dose: 200.0 mg/kg/injection, schedule: Q01DX009 (ip), vehicle: saline) 116 % of control and 120 % of control and 122 % of control; (dose: 400.0 mg/kg/injection, schedule: Q01DX009 (ip), vehicle: saline) 121 % of control and 123 % of control and 124 % of control; (dose: 600.0 mg/kg/injection, schedule: Q01DX009 (ip), vehicle: saline) 155 % of control and 157 % of control and 150 % of control.

As to `O=C1c2ccccc2C(=O)N1CCc1ccccc1Br`, the T/C reads like this: under setting [2], 104 % of control; under setting [3], 96 % of control.

Take `CCOc1cc2c(cc1C(CC)c1ccccc1)OCO2` (stereo not given): the T/C under setting [2] was 99 % of control, the T/C under setting [3] was 96 % of control and the T/C under setting [4] is 95 % of control.

Turning to `[Cl][Pt+2][Cl].[NH-]C1CCCCCCC1.[NH-]C1CCCCCCC1`, the T/C (dose: 12.5 mg/kg/injection, schedule: Q01DX009 (ip), vehicle: other) was 106 % of control; the T/C (dose: 25.0 mg/kg/injection, schedule: Q01DX009 (ip), vehicle: other) is 97 % of control; the T/C (dose: 50.0 mg/kg/injection, schedule: Q01DX009 (ip), vehicle: other) was 101 % of control; the T/C (dose: 100.0 mg/kg/injection, schedule: Q01DX009 (ip), vehicle: other) is 117 % of control; the T/C (dose: 200.0 mg/kg/injection, schedule: Q01DX009 (ip), vehicle: other) is 108 % of control.

`S=C=NCCCCCCCCCCCCN=C=S`: the T/C reads like this: (dose: 3.12 mg/kg/injection, schedule: Q01DX009 (ip), vehicle: saline with Tween-80) 112 % of control and 115 % of control; (dose: 6.25 mg/kg/injection, schedule: Q01DX009 (ip), vehicle: saline with Tween-80) 106 % of control and 120 % of control.

In the case of `c1ccc2c(NCCCCCCCNc3c4ccccc4nc4ccccc34)c3ccccc3nc2c1`, the T/C was 157 % of control (dose: 2.5 mg/kg/injection, schedule: Q01DX009 (ip), vehicle: other); 155 % of control and 163 % of control and 175 % of control (dose: 5.0 mg/kg/injection, schedule: Q01DX009 (ip), vehicle: other); 112 % of control (dose: 10.0 mg/kg/injection, schedule: Q01DX009 (ip), vehicle: other).

Take `CC(=O)NC1C=CC(=O)O1` (stereo not given): the T/C (dose: 2.1 mg/kg/injection, schedule: Q01DX010 (ip), vehicle: saline) was 104 % of control.

For the molecule `CCOC(=O)c1cc2c(nc1C)-c1ccccc1OC2Nc1ccccc1` (stereo not given), the T/C was 98 % of control under setting [5]; 96 % of control under setting [6]; 96 % of control (dose: 12.5 mg/kg/injection, schedule: Q01DX005 (ip), vehicle: saline with Tween-80); 88 % of control under setting [7]; 89 % of control (dose: 100.0 mg/kg/injection, schedule: Q01DX001 (ip), vehicle: saline with Tween-80).

Take `CCSC(=O)OCC(C)([N+](=O)[O-])[N+](=O)[O-]`: the T/C (dose: 100.0 mg/kg/injection, schedule: Q04DX003 (ip), vehicle: saline) is 94 % of control; the T/C (dose: 200.0 mg/kg/injection, schedule: Q04DX003 (ip), vehicle: saline) was 94 % of control; the T/C (dose: 400.0 mg/kg/injection, schedule: Q04DX003 (ip), vehicle: saline) was 100 % of control.

For the molecule `Cc1cc(N(CCO)CCO)c2ccc3ccccc3c2n1`, the T/C by setting is: under setting [8], 101 % of control; under setting [9], 108 % of control; under setting [10], 97 % of control.

For `c1ccc2c(c1)[nH]c1nc3ccncc3nc12`, the T/C by setting is: under setting [8], 90 % of control; under setting [9], 90 % of control.

In the case of `COC(=O)C1C2C(C)CC3(CC12C)OCCO3` (stereo not given), the T/C runs as follows: under setting [9], 91 % of control; under setting [10], 91 % of control; (dose: 400.0 mg/kg/injection, schedule: Q01DX009 (ip), vehicle: saline with Tween-80) 91 % of control.

`CC12CC(=O)NC(=O)N1CCS2` (stereo not given): the T/C (dose: 50.0 mg/kg/injection, schedule: Q01DX009 (ip), vehicle: Klucel (hydroxypropylcellulose) (HPC)) was 106 % of control; the T/C (dose: 100.0 mg/kg/injection, schedule: Q01DX009 (ip), vehicle: Klucel (hydroxypropylcellulose) (HPC)) is 100 % of control; the T/C (dose: 200.0 mg/kg/injection, schedule: Q01DX009 (ip), vehicle: Klucel (hydroxypropylcellulose) (HPC)) was 92 % of control.

With `NC(CCCCNC(=S)S)C(=O)O.[Na+].[Zn+2]` (stereo not given), the T/C was 102 % of control under setting [11]; 102 % of control under setting [1]; 102 % of control and 107 % of control and 114 % of control under setting [2]; 109 % of control and 120 % of control (2×) under setting [3].

Consider `O=C(Nc1ccc(Oc2ccc(Cl)cc2)c(Cl)c1)c1cc(I)cc(I)c1O`, for which the T/C runs as follows: under setting [11], 96 % of control; under setting [1], 109 % of control; under setting [2], 101 % of control and 115 % of control.

As to `CN(C)C1=CC(=O)NC(c2ccccc2)C1` (stereo not given), the T/C runs as follows: under setting [2], 102 % of control; under setting [3], 99 % of control; under setting [4], 99 % of control.

`O=C(CSc1ncnc2nc[nH]c12)c1ccccc1`: the T/C is 90 % of control under setting [8], 100 % of control under setting [9] and 105 % of control under setting [10].

In the case of `C=CCn1cnc2c(=S)nc[nH]c21`, the T/C runs as follows: (dose: 12.5 mg/kg/injection, schedule: Q01DX009 (ip), vehicle: saline with Tween-80) 104 % of control; (dose: 25.0 mg/kg/injection, schedule: Q01DX009 (ip), vehicle: saline with Tween-80) 104 % of control; under setting [8], 109 % of control; (dose: 100.0 mg/kg/injection, schedule: Q04DX003 (ip), vehicle: saline with Tween-80) 109 % of control; (dose: 200.0 mg/kg/injection, schedule: Q04DX003 (ip), vehicle: saline with Tween-80) 100 % of control.

Regarding `COc1cc(C)c(OC)c(C/C=C(\C)CC2(O)C[C@@]3(C)CCC[C@@]3(C)C(=O)C2CC(C)(C)O)c1` (stereo not given in full), the T/C (dose: 5.0 mg/kg/injection, schedule: Q01DX005 (ip), vehicle: saline with Tween-80) was 92 % of control; the T/C (dose: 10.0 mg/kg/injection, schedule: Q01DX005 (ip), vehicle: saline with Tween-80) is 95 % of control; the T/C (dose: 20.0 mg/kg/injection, schedule: Q01DX005 (ip), vehicle: saline with Tween-80) was 93 % of control.

As to `Cc1cc2nnc(-c3ccc(C#N)cc3)n2c2nnnn12`, the T/C was 100 % of control (dose: 25.0 mg/kg/injection, schedule: Q01DX005 (ip), vehicle: saline with Tween-80); 100 % of control under setting [7]; 104 % of control (dose: 100.0 mg/kg/injection, schedule: Q01DX005 (ip), vehicle: saline with Tween-80); 104 % of control (dose: 200.0 mg/kg/injection, schedule: Q01DX005 (ip), vehicle: saline with Tween-80).

For `C[N+](C)(C)C.[CH-]1CCCCC1.[CH-]1CCCCC1.[CH-]1CCCCC1.[Cl-].[Cl-].[Sn+4]`, the T/C under setting [5] is 108 % of control and the T/C under setting [6] was 101 % of control.

For `COc1ccc(CC2c3cc4c(cc3CCN2C)OCO4)c(/C=C\c2ccccc2)c1OC` (stereo not given), the T/C reads like this: (dose: 6.25 mg/kg/injection, schedule: Q01DX001 (ip), vehicle: saline + alcohol) 92 % of control; (dose: 12.5 mg/kg/injection, schedule: Q01DX001 (ip), vehicle: saline + alcohol) 93 % of control; (dose: 25.0 mg/kg/injection, schedule: Q01DX001 (ip), vehicle: saline + alcohol) 90 % of control; (dose: 200.0 mg/kg/injection, schedule: Q01DX001 (ip), vehicle: saline + alcohol) 87 % of control.

For `CN1CC(=O)[O][Sn]([CH3])([CH3])[O]C(=O)C1`, the T/C is 119 % of control (dose: 7.5 mg/kg/injection, schedule: Q01DX005 (ip), vehicle: Klucel (hydroxypropylcellulose) (HPC)); 122 % of control (dose: 15.0 mg/kg/injection, schedule: Q01DX005 (ip), vehicle: Klucel (hydroxypropylcellulose) (HPC)); 101 % of control (dose: 15.0 mg/kg/injection, schedule: Q01DX005 (ip), vehicle: saline with Tween-80); 122 % of control (dose: 30.0 mg/kg/injection, schedule: Q01DX005 (ip), vehicle: Klucel (hydroxypropylcellulose) (HPC)); 116 % of control (dose: 30.0 mg/kg/injection, schedule: Q01DX005 (ip), vehicle: saline with Tween-80).
